Laboratory results: patent publication US7935687B2, “Methods for treating spinal muscular atrophy using tetracycline compounds” (Paratek Pharmaceuticals, Inc., priority 2007, dated 2011)

How the values were obtained:
[1] = system: SMN2 mRNA; test: In vitro cell-free splicing assay for inclusion of exon 7; format: biochemical; conditions: HeLa cell nuclear extract, 30° C., 3 hours
Protocol: The following example illustrates how tetracycline compound of the invention are active in an in vitro cell-free assay for the inclusion of exon 7 in […] mRNA. SMN1 and SMN2 pre-mRNA were prepared by in vitro transcription using T7 RNA polymerase of minigene templates that include exon 6, a truncated portion of intron 6, exon 7, intron 7 and a portion of exon 8 in the presence of ^32P-UTP. Labeled RNA was purified on a denaturing polyacrylamide gel followed by phenol extraction and ethanol precipitation of the RNA.
In vitro cell-free splicing of SMN1 and SMN2 transcripts was carried out in a 10 μl reaction volume at 30° C. for 3 hours. The reactions contained 10 fmol of labeled pre-mRNA, 30% (3 VI) HeLa cell nuclear extract (in 20 mM HEPES, pH 7.4, 20% (v/v) glycerol, 0.1M KC1, 0.2 mM EDTA), 1.3% (w/v) polyvinyl alcohol, 1.56 mM MgCl2, 32 mM HEPES, pH 7.4, 0.5 mM ATP, 20 mM creatine phosphate and either 2 μl of test compound (in 20 mM HEPES, pH 7.4, 0.1M KC1, 0.2 mM EDTA) or buffer alone. Following incubation, 200 μl of a solution containing 0.3M NaAc and 0.2% SDS was added to the reaction. Proteins were removed by extraction with an equal volume of phenol and RNA was precipitated with 2.5 volumes of ethanol. RNA was resuspended in formamide sample buffer and separated on a 9% urea-denaturing polyacrylamide gel. Quantitation of splicing was based on phosphorimage analysis (Fujix BAS2000 or Fujifilm FLA-5100). In this assay, percentage exon 7 inclusion averages 12% for the unmutated SMN1 mRNA and 4% for the SMN2 mRNA.
The in vitro activities for exon 7 splicing are expressed as the Emax (the maximum percentage exon 7 inclusion observed) and Cmax (the lowest compound concentration at which the maximum inclusion occurs in μM). For Emax, percentage inclusion values of less than 10% are indicated by “*”, values of 10-20% are indicated by “**”, and values greater than 20% are indicated by “***”. For Cmax data, concentrations of greater than 40 μM are indicated by “*”, concentrations between 40 and 10 μM are represented by “**” and concentrations of less than 10 μM are represented by “***”.

[2] = system: S. aureus (SA RN450); test: Antibacterial MIC, gram positive; format: cell-based; conditions: CLSI methodology, 35° C., 18-24 hours
[3] = system: E. coli (EC D1-209); test: Antibacterial MIC, gram negative; format: cell-based; conditions: CLSI methodology, 35° C., 18-24 hours

Question: What does the source list for `CC(=O)N1CCN(CC(=O)c2ccc(O)c3c2CC2CC4C(N(C)C)C(O)=C(C(N)=O)C(=O)C4(O)C(O)=C2C3=O)CC1` (stereo not drawn) [BS]?
Answer: Cmax (lowest compound concentration at which the maximum exon 7 inclusion occurs) [1]: * (concentrations of greater than 40 μM); Emax (maximum percentage exon 7 inclusion observed) [1]: ** (values of 10-20%); MIC Gram Positive (SA RN450) [2]: *** (Good antibacterial activity (e.g., less than about 4 μg/mL)); MIC Gram Negative (EC D1-209) [3]: * (weak antibacterial activity (greater than about 8 μg/mL))

Question: How did the “MIC Gram Positive (SA RN450)” value [2] turn out when `CN1CCN(C(=O)c2cccc(-c3ccc(O)c4c3CC3CC5C(N(C)C)C(O)=C(C(N)=O)C(=O)C5(O)C(O)=C3C4=O)c2)CC1` (stereo not drawn) [D] was run?
Answer: * (weak antibacterial activity (greater than about 8 μg/mL))

Question: And the “MIC Gram Negative (EC D1-209)” value [3]?
Answer: * (weak antibacterial activity (greater than about 8 μg/mL))

Question: Which “MIC Gram Positive (SA RN450)” value [2] does the source give for `CN(C)C1C(O)=C(C(N)=O)C(=O)C2(O)C(O)=C3C(=O)c4c(O)ccc(C(=O)CNCC(C)(C)C)c4CC3CC12` (stereo not drawn) [BP] here?
Answer: *** (Good antibacterial activity (e.g., less than about 4 μg/mL))

Question: And the “MIC Gram Negative (EC D1-209)” value [3]?
Answer: * (weak antibacterial activity (greater than about 8 μg/mL))

Question: With `CN(C)c1cc(-c2ccc(CN3CCN(CCO)CC3)o2)c(O)c2c1C[C@H]1C[C@H]3[C@H](N(C)C)C(O)=C(C(N)=O)C(=O)[C@@]3(O)C(O)=C1C2=O` [BA] as the molecule, how does the “MIC Gram Positive (SA RN450)” value [2] read?
Answer: *** (Good antibacterial activity (e.g., less than about 4 μg/mL))

Question: What about the “MIC Gram Negative (EC D1-209)” value [3] of the same molecule?
Answer: * (weak antibacterial activity (greater than about 8 μg/mL))

Question: What does the source list for `CN(C)CCCNC(=O)c1ccc(-c2ccc(O)c3c2CC2CC4C(N(C)C)C(O)=C(C(N)=O)C(=O)C4(O)C(O)=C2C3=O)cc1` (stereo not drawn) [AA]?
Answer: MIC Gram Positive (SA RN450) [2]: ** (modest antibacterial activity (between about 4 and 8 μg/mL)); MIC Gram Negative (EC D1-209) [3]: * (weak antibacterial activity (greater than about 8 μg/mL))

Question: For `CN(C)CCNC(=O)c1cccc(-c2ccc(O)c3c2C[C@H]2C[C@H]4CC(O)=C(C(N)=O)C(=O)[C@@]4(O)C(O)=C2C3=O)c1` [Compound Z, (4aS,5aR,12aS)-7-[3-(2-Dimethylamino-ethylcarbamoyl)-phenyl]-3,10,12,12a-tetrahydroxy-1,11-dioxo-1,4,4a,5,5a,6,11,12a-octahydro-naphthacene-2-carboxylic Acid Amide], which MIC ([2]; Staphylococcus aureus) is on record?
Answer: > 8 µg/mL

Question: What about the MIC ([3]; Escherichia coli) of the same molecule?
Answer: > 8 µg/mL

Question: How did the “MIC Gram Positive (SA RN450)” value [2] turn out when `CC(=O)c1cccc(-c2ccc(O)c3c2CC2CC4C(N(C)C)C(O)=C(C(N)=O)C(=O)C4(O)C(O)=C2C3=O)c1` (stereo not drawn) [AS] was run?
Answer: *** (Good antibacterial activity (e.g., less than about 4 μg/mL))

Question: And the “MIC Gram Negative (EC D1-209)” value [3]?
Answer: * (weak antibacterial activity (greater than about 8 μg/mL))

Question: For `CN1CCN(C(=O)c2cccc(-c3ccc(O)c4c3CC3CC5C(N(C)C)C(O)=C(C(N)=O)C(=O)C5(O)C(O)=C3C4=O)c2)CC1` (stereo not drawn) [Compound C], which “MIC Gram Positive (SA RN450)” value [2] is on record?
Answer: *** (Good antibacterial activity (e.g., less than about 4 μg/mL))

Question: What about the “MIC Gram Negative (EC D1-209)” value [3] of the same molecule?
Answer: * (weak antibacterial activity (greater than about 8 μg/mL))

Question: For `CN(C)C1C(O)=C(C(N)=O)C(=O)C2(O)C(O)=C3C(=O)c4c(O)ccc(-c5ccccc5)c4CC3CC12` (stereo not drawn) [AQ], which “MIC Gram Positive (SA RN450)” value [2] is on record?
Answer: *** (Good antibacterial activity (e.g., less than about 4 μg/mL))

Question: And the “MIC Gram Negative (EC D1-209)” value [3]?
Answer: ** (modest antibacterial activity (between about 4 and 8 μg/mL))

Question: Which results are given for `C=CCNCC(=O)c1ccc(O)c2c1CC1CC3C(N(C)C)C(O)=C(C(N)=O)C(=O)C3(O)C(O)=C1C2=O` (stereo not drawn) [BV]?
Answer: MIC Gram Positive (SA RN450) [2]: *** (Good antibacterial activity (e.g., less than about 4 μg/mL)); MIC Gram Negative (EC D1-209) [3]: * (weak antibacterial activity (greater than about 8 μg/mL))

Question: What does the source list for `CN(C)C1C(O)=C(C(N)=O)C(=O)C2(O)C(O)=C3C(=O)c4c(O)ccc(C(=O)Cn5ccnc5)c4CC3CC12` (stereo not drawn) [CF]?
Answer: MIC Gram Positive (SA RN450) [2]: ** (modest antibacterial activity (between about 4 and 8 μg/mL)); MIC Gram Negative (EC D1-209) [3]: * (weak antibacterial activity (greater than about 8 μg/mL))
